The target in the test is Glutamate receptor 3 (Rattus norvegicus, UniProt P19492).

This passage reports Ki results from BindingDB's records for doi:10.1124/mol.58.6.1310 (Pfizer, 2000).

Where only a bound is given, the exact number is not on record here.

Sequence of Glutamate receptor 3 (P19492 whole entry): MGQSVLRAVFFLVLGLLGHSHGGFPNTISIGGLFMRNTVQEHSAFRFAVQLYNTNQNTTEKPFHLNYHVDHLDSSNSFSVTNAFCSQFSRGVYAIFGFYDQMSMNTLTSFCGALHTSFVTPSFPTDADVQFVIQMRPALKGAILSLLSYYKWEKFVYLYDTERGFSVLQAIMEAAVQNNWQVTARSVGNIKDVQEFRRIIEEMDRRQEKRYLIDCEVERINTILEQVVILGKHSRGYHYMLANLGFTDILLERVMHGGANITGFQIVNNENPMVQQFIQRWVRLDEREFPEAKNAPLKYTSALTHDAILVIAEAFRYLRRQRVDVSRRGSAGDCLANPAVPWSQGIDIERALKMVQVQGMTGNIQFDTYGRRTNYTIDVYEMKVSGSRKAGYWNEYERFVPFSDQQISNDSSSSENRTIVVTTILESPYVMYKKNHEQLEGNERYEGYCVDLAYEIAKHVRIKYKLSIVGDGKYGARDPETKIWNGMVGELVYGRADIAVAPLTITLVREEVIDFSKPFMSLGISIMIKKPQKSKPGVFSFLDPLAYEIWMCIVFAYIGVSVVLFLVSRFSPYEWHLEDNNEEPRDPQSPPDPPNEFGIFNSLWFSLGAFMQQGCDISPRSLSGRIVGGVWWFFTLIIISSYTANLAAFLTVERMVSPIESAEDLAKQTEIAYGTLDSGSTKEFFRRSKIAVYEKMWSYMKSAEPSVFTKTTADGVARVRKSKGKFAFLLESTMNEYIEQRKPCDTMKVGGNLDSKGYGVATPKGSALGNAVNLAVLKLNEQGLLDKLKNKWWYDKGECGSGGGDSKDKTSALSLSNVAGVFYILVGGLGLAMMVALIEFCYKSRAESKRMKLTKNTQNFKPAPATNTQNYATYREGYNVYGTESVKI

What is called Ki is the dissociation constant of the complex between target and ligand, obtained from inhibition or displacement. In turn, `N#Cc1cccc(/C=C/c2nc3ccc(F)cc3c(=O)n2-c2ccccc2Cl)n1` returned a Ki of 3 nM. The value for `CCN(CC)Cc1cccc(/C=C/c2nc3ccc(F)cc3c(=O)n2-c2ccccc2Cl)n1` [(R)-3-(2-Chloro-phenyl)-2-[(E)-2-(6-diethylaminomethyl-pyridin-2-yl)-vinyl]-6-fluoro-3H-quinazolin-4-one] was 25 nM. The result for `Cc1ncccc1-n1c(/C=C/C2CSC(C)N2)nc2ccccc2c1=O` (stereo not given) [CP-471236] reads 57 nM; that for `Cc1ncccc1-n1c(/C=C/C2CS[C@H](C)N2)nc2ccccc2c1=O` (stereo not given in full) [CP-471237], above 10000 nM. As to `CC1=NN=C(c2ccc(N)cc2)c2cc3c(cc2C1)OCO3` [GYKI-52466], the Ki is above 10000 nM.
